From patent US10669272B2, “Substituted naphthyridinone compounds useful as T cell activators” (BRISTOL-MYERS SQUIBB COMPANY, priority 2018, dated 2020)
Where two headings read alike, the source gives them in different places.

Key:
human DGKζ = target: T1, human DGKζ (Homo sapiens, UniProt Q13574); test: DGKζ LIPGLO assay (extruded liposome substrate), in vitro DGK inhibition; type: biochemical; conditions: read-out: DGKz LIPGLO IC50
T1 construct: TVMV protease cleavage site (C); Hexa-His (C); made in house; host or cells: Sf9 insect cells (baculovirus, Bac-to-Bac)

human DGKα = target: T2, human DGKα (Homo sapiens, UniProt P23743); test: DGKα LIPGLO assay (extruded liposome substrate), in vitro DGK inhibition; type: biochemical; conditions: read-out: DGKa LIPGLO IC50
T2 construct: TVMV protease cleavage site (C); Hexa-His (C); made in house; host or cells: Sf9 insect cells (baculovirus, Bac-to-Bac)

Human venous whole blood = test: Human whole blood IFN-γ assay; type: cell-based; conditions: human whole blood; normalized to 3 μM reference compound with anti-CD3 plus anti-CD28 as 100% activation; read-out: INFg Whole Blood Normalized Agonist EC50;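 also: blood from healthy donors exposed to compound for 1 h before stimulation with anti-CD3 and anti-CD28 at 1 µg/mL each, IFN-γ quantified in supernatant by AlphaLISA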
Procedure: Human Whole Blood IFN-γ Assay
Human venous whole blood (22.5 μL per well), obtained from healthy donors, was pre-treated with compounds for one hour at 37° C. in a humidified 95% air/5% CO2 incubator. The blood was stimulated with 2.5 μL anti-human CD3 and anti-CD28 mAb at a final concentration of 1 μg/mL each for 24 hours at 37° C. IFN-γ in the supernatants was measured using AlphLISA kit (Cat # AL217).

T2 sequence (P23743 with tags, fused parts or gaps): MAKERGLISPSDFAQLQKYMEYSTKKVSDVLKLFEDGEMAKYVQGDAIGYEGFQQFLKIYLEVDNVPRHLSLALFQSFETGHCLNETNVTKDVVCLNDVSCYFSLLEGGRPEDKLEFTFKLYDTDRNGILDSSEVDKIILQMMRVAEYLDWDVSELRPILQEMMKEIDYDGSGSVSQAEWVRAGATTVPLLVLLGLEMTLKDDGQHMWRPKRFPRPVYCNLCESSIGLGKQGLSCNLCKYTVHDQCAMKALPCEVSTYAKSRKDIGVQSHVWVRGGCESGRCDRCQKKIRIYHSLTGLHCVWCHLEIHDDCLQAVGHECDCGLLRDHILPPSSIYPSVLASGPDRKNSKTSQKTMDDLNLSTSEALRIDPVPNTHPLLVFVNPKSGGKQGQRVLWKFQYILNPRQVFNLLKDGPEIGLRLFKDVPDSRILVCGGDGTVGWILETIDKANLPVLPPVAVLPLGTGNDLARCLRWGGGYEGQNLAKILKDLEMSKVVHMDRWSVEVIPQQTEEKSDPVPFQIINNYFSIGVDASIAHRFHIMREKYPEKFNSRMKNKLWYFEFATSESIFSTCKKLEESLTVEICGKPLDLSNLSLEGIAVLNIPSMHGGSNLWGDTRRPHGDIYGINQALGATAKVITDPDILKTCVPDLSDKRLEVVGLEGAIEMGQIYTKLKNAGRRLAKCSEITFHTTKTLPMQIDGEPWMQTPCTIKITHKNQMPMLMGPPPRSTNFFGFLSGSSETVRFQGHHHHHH
T1 sequence (Q13574 with tags, fused parts or gaps isoform Q13574-4): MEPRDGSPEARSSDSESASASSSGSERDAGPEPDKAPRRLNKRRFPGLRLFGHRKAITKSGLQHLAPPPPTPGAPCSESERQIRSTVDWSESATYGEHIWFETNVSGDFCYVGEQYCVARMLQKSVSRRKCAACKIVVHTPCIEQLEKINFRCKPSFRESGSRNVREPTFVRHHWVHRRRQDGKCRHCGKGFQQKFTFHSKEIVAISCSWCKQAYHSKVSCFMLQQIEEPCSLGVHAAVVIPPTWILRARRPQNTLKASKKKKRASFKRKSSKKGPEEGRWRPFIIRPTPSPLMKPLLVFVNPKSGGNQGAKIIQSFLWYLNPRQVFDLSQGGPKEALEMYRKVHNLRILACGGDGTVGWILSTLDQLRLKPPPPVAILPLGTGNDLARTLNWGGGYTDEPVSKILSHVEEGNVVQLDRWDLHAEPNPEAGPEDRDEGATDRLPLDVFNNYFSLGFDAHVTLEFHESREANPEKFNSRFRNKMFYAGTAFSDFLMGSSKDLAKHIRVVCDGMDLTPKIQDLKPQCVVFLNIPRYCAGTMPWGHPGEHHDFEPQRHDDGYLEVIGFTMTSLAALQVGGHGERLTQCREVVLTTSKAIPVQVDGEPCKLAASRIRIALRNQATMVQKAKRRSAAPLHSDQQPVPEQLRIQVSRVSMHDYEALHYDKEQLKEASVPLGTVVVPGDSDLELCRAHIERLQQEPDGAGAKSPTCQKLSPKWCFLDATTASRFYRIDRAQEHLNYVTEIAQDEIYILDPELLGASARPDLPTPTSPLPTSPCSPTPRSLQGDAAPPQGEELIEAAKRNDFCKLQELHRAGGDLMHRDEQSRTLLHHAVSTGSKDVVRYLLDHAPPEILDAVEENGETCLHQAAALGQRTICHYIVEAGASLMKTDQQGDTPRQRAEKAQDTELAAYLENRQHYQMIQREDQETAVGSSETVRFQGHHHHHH

Row | Compound | IC50 (human DGKζ; DGKζ liposome (LIPGLO) assay) [nM] | IC50 (human DGKα; DGKα liposome (LIPGLO) assay) [nM] | IC50 (human DGKζ; liposome (LIPGLO) assay) [nM] | IC50 (human DGKα; liposome (LIPGLO) assay) [nM] | EC50 (Human venous whole blood) [nM]
1 | COC(=O)c1ccc(C(C)N2CCN(c3c(C#N)c(=O)n(C)c4ccc(C#N)nc34)C[C@H]2C)cc1 (some centres unmarked) [Example 980] | 13000 | 5700 | – | – | –
2 | C[C@@H]1CN(c2c(C#N)c(=O)n(C)c3ccc(C#N)nc23)CCN1Cc1c(F)cccc1Cl [Example 984] | 880 | 1500 | – | – | –
3 | C[C@@H]1CN(c2c(C#N)c(=O)n(C)c3ccc(C#N)nc23)CCN1Cc1cccnc1 [Example 998] | > 250000 | 21000 | – | – | –
4 | Cc1ccc(CN2CCN(c3c(C#N)c(=O)n(C)c4ccc(C#N)nc34)C[C@H]2C)cc1 [Example 1007] | 3900 | 420 | – | – | –
5 | C[C@@H]1CN(c2c(C#N)c(=O)n(C)c3ccc(C#N)nc23)CCN1Cc1cccc(OC(F)(F)F)c1 [Example 1008] | 7100 | 1700 | – | – | –
6 | Cc1cccc(CN2CCN(c3c(C#N)c(=O)n(C)c4ccc(C#N)nc34)C[C@H]2C)c1 [Example 1012] | 1400 | 350 | – | – | –
7 | CC[C@H]1CN(C(c2cccc(F)c2)c2ccc(OC)cn2)[C@H](CC)CN1c1cc(=O)n(C)c2ccc(C#N)nc12 (some centres unmarked) [Example 1047] | – | – | 270 | 210 | –
8 | CC[C@@H]1CN(c2cc(=O)n(C)c3ccc(C#N)nc23)[C@@H](CC)CN1Cc1ccc(F)cc1 [Example 1061] | – | – | 100 | 11 | –
9 | CC[C@H]1CN(C(c2ccc(F)cc2)c2nc(C3CC3)no2)[C@H](CC)CN1c1cc(=O)n(C)c2ccc(C#N)nc12 (some centres unmarked) [Example 1064] | – | – | 39 | 80 | –
10 | CC[C@H]1CN(C(c2ccc(F)cc2)c2nc(C3CC3)cs2)[C@H](CC)CN1c1cc(=O)n(C)c2ccc(C#N)nc12 (some centres unmarked) [Example 1066] | – | – | 30 | 28 | –
11 | CC[C@@H]1CN(c2cc(=O)n(C)c3ccc(C#N)nc23)[C@@H](C)CN1C(c1ccc(F)cc1)c1nc(C2CC2)no1 (some centres unmarked) [Example 1116] | – | – | 13 | 31 | –
12 | Cc1ccc(C(c2ccc(C)cc2)N2C[C@H](C)N(c3cc(=O)n(C)c4ccc(C#N)nc34)C[C@H]2CO)cc1 [Example 1150, 8-((2S,5S)-4-(di-p-tolylmethyl)-5-(hydroxymethyl)-2-methylpiperazin-1-yl)-5-methyl-6-oxo-5,6-dihydro-1,5-naphthyridine-2-carbonitrile] | – | – | 18000 | 18000 | –
13 | C[C@H]1CN(C(c2ccc(F)cc2)c2ccc(F)cc2)[C@H](CO)CN1c1cc(=O)n(C)c2ccc(C#N)nc12 [Example 1151] | – | – | 22000 | 9600 | –
14 | Cc1ccc(C(c2cccc(F)c2)N2C[C@H](C)N(c3cc(=O)n(C)c4ccc(C#N)nc34)C[C@H]2CO)nc1 (some centres unmarked) [Example 1153] | – | – | 32000 | 6600 | –
15 | CC[C@@H]1CN(c2cc(=O)n(C)c3ccc(C#N)nc23)[C@@H](C)CN1C(CC1CCCCC1)c1ccc(OC(F)(F)F)cc1 (some centres unmarked) [Example 1195] | – | – | 280 | 830 | –
16 | CC[C@@H]1CN(c2cc(=O)n(C)c3ccc(C#N)nc23)[C@@H](C)CN1C(CC1CCCCC1)c1ccc(OC(F)(F)F)cc1 (some centres unmarked) [Example 1196] | – | – | 270 | 1400 | –
17 | CCC(c1cc(OC(F)(F)F)ccc1F)N1C[C@H](C)N(c2cc(=O)n(C)c3ccc(C#N)nc23)C[C@H]1C (some centres unmarked) [Example 1206] | – | – | – | – | 2100
18 | CC(c1ccc(F)c(C#N)c1)N1C[C@H](C)N(c2cc(=O)n(C)c3ccc(C#N)nc23)C[C@H]1C (some centres unmarked) [Example 1262] | – | – | 1300 | 5400 | –
19 | COCc1ccc(C(C)N2C[C@H](C)N(c3cc(=O)n(C)c4ccc(C#N)nc34)C[C@H]2C)cc1 (some centres unmarked) [Example 1266] | – | – | – | – | 1400
20 | C[C@@H]1CN(c2cc(=O)n(C)c3ccc(C#N)nc23)[C@@H](C)CN1C(CO)c1ccc(C(F)(F)F)cn1 (stereo partly drawn) [Example 1279, 8-((2S,5R)-4-(2-hydroxy-1-(5-(trifluoromethyl)pyridin-2-yl)ethyl)-2,5-dimethylpiperazin-1-yl)-5-methyl-6-oxo-5,6-dihydro-1,5-naphthyridine-2-carbonitrile] | – | – | 1400 | 1400 | –
21 | COc1ccc(C(C)N2C[C@H](C)N(c3cc(=O)n(C)c4ccc(C#N)nc34)C[C@H]2C)cc1OCCN1CCOCC1 (some centres unmarked) [Example 1304] | – | – | 17000 | 110000 | –
22 | COC[C@@H]1CN(c2cc(=O)n(C)c3ccc(C#N)nc23)[C@@H](C)CN1C(c1ccc(F)cc1)c1nc(C2CC2)no1 (stereo partly drawn) [Example 1393, 8-((2S,5S)-4-((3-cyclopropyl-1,2,4-oxadiazol-5-yl)(4-fluorophenyl)methyl)-5-(methoxymethyl)-2-methylpiperazin-1-yl)-5-methyl-6-oxo-5,6-dihydro-1,5-naphthyridine-2-carbonitrile] | – | – | 16 | 22 | –
23 | C[C@@H]1CN(c2cc(=O)n(C)c3ccc(C#N)nc23)[C@@H](C)CN1Cc1nnc(C(F)(F)F)o1 [Example 1436] | – | – | 5600 | 11000 | –
